Results on four sequences are retold here after US20250205324A1, “ANTIGENIC PEPTIDES FOR PREVENTION AND TREATMENT OF CANCER” (ENTEROME S.A., priority 2022, published 2025).

“Also recorded” adds a separate entry of the source.

The target in one experiment is T1, HLA-A*0201 (Homo sapiens, UniProt P04439, D140Y/D185E/D98H/E176V/E277Q/G131W/G231S/I119V/I121R/I166T/I218V/L300P/L318F/N151K/N90K/P208A/P217A/Q86G/Q94H/R138H/R169H/T345S).
T1 construct: human tumoral cell T2 which expresses the HLA-A*0201 molecule; endogenous in cells; host or cells: T2 cells (human, TAP1/2 negative)
Briefly: Affinity of the peptide to T2 cell line (HLA-A*0201 binding, FACS with anti-HLA-A2 antibody). To be noted: T2 cells. Here is the method: T2 cells (5·10^4 cells per well) are incubated with decreasing concentrations of peptides from 100 μM to 0.1 μM (4 points: 100 μM, 10 μM, 1 μM, 0.1 μM) in serum-free medium (TexMacs) supplemented with 100 ng/μl of 2 Microglobulin at 37° C. for 16 hours.
The analysis is achieved by FACS (Macsquant analyzer 10 or a Macsquant analyzer 16-Miltenyi).

Experiment [1] relates to HHD DR1 HLA-A2 transgenic mice. Briefly: ELISPOT-IFNγ assay on splenocytes of vaccinated HLA-A2 transgenic mice. The format is in vivo, mouse. To be noted: for immunogenicity: T cell response in ELISPOT-IFNγ: 30 nmol peptide + UCP2 helper in Montanide ISA 51 VG s.c., prime d0, boost d14, spleen d21, restimulation 10 μM; for cross-reactivity of induced T cells with the corresponding human peptide in ELISPOT-IFNγ: prime d0, boost d14, spleen d21, challenge with human peptide 10 μM. Here is the method: Briefly, HLA-A2 HHD-DR1 humanized mice (C57BL/6JB2mtm1UnclAb−/−Tg(HLA-DRA, HLA-DRB1*0101)#GjhTg(HLA-A/H2-D/B2M)1 Bpe) were assigned randomly (based on mouse sex and age) to experimental groups, wherein each group was immunized with a specific vaccination peptide (vacc-pAg) combined to a common helper peptide (h-pAg UCP2; sequence: […]; SEQ ID NO: 39) (as outlined in Table 6 below).
The peptide formulation to be injected (emulsion) was prepared freshly on each day of injection and for each group. A mix for 10 animals was prepared using 2 mL luer lock syringes (4606701 V, B BRAUN) and luer lock female-female Combifix® Adapter (B. Braun, 5206634): 500 μL of peptide mixture in syringe 1 was emulsified with 500 μL of Montanide ISA 51 VG (Seppic) contained in syringe 2. The emulsification process was performed first by pushing the peptide mixture contained in syringe 1 into syringe 2 (containing Montanide) at very low speed. Transfer of the mixture from one syringe to another was then performed at very low speed during 6 cycles (one cycle corresponding to one passage from one syringe to another), and secondly at high speed, as fast as possible, for 1 minute. Each emulsion was prepared in excess to compensate for the dead volumes at injection.
The animals were immunized on day 0 (d0) with a prime injection, and on d14 with a boost injection. Each mouse was injected s.c. on the loose skin over the neck of the animals with 100 μL of an oil-based emulsion that contained: • 30 nmol of vacc-pAg and 30 or 100 μg of UCP2 helper peptide in 50 μL of a dedicated final solvent • Montanide ISA 51 VG (Seppic) added at 1:1 (v:v) ratio (50 μL per mouse).
Seven days after the boost injection (i.e. on d21), the animals were euthanized and the spleen was harvested. Splenocytes were prepared by mechanical disruption of the organ followed by 70 μm-filtering and Red blood cell lysis.
The cell suspensions were further used in an ELISPOT-IFN assay (Table 5). The cells were cultured in 200 μL of complete T cell medium. Experimental conditions (duplicates) were as follow: 2×10^5 total cells per well when cultured in presence of various pAg (10 μM) or medium-only; and 2×10^4 total cells when cultured in presence of the positive control PMA/lonomycin (PMA: Sigma P8139: 0.1 μM final; lonomycin: Sigma 10634: 1 μM final). The cultures were assessed for their capacity to secrete IFN (mouse IFN-ELISpotPLUS kit, Mabtech 3321-4APT-10), following the manufacturer's instructions (˜12-48h incubation time before performing the assay). The peptides used for restimulation are described in Table 7.
Spots were counted on a an iSpot Fluorospot Reader System (AID). Data plotting and statistical analysis were performed with the Prism-9 software (GraphPad Software Inc.).
The data were provided as a number of spots per 1·10^6 total T cells. The individual average values (obtained from the duplicates) were next used to plot the group average values. Statistical analysis for comparison (to the irrelevant peptide condition) were performed using unpaired non-parametric test (Mann Whitney) (**: p<0.01; *: p<0.05).

As to ALYSEILTV [ANKRD30A-B1], in the experiment with HLA-A*0201, the “Concentration of peptide that induces 20% of HLA-A2 expression” value was 0.05 µM. In experiment [1], the “immunogenicity: T cell response in ELISPOT-IFNγ” value (from here on “immunogenicity: T cell response”) is “induced significant T cell responses; also recorded: strongly immunogenic; also recorded: induced strong immune responses” and the “cross-reactivity of induced T cells with the corresponding human peptide in ELISPOT-IFNγ” value (“cross-reactivity of induced T cells” below) is “able to drive an effective immune response against the corresponding human peptide; also recorded: Cross-reactivity”.
For ALIFGQLLL [TOP2A-B2], the “Concentration of peptide that induces 20% of HLA-A2 expression” value with HLA-A*0201 was determined as 1.79 µM. Moreover, in experiment [1], the “immunogenicity: T cell response” value is recorded as “induced significant T cell responses; also recorded: strongly immunogenic; also recorded: induced strong immune responses” and the “cross-reactivity of induced T cells” value is “able to drive an effective immune response against the corresponding human peptide; also recorded: Cross-reactivity”.
KIIGIILAV [CDH17-B1]: in experiment [1], the “immunogenicity: T cell response” value was “induced significant T cell responses; also recorded: strongly immunogenic; also recorded: induced strong immune responses” and the “cross-reactivity of induced T cells” value was “able to drive an effective immune response against the corresponding human peptide; also recorded: Cross-reactivity”.
For the sequence “SLPDRILDA (listed as Homo sapiens) [CDC20-H1, reference compound]”, in the experiment with HLA-A*0201, the “Concentration of peptide that induces 20% of HLA-A2 expression” value amounted to 4.57 µM. Moreover, the “cross-reactivity of induced T cells” value in experiment [1] is “Cross-reactivity”.
